For series [1], the target named is T1, Human albumin (Homo sapiens, UniProt P02768). The series is described as follows: Anti-glycation activity of 2-(phenylamino)phenylacetic acids (glycated albumin ELISA). It counts as biochemical. The conditions noted are these: for pIC50: human albumin 10 mg/ml, 0-50 mM glucose, 48-144 hours, 37° C., read-out: Glycation Inhibition IC50; for Antiglycation IC50 versus COX Inhibition IC50 (ratio): ratio of glycation IC50 to cyclo-oxygenase IC50. How it is done: After dialysis to remove free glucose and compound, the amount of glycated albumin formed was determined by enzyme-linked immunosorbent assay using the monoclonal antibodies known to specifically react with Amadori-glucose adducts in glycated albumin and to be unreactive with the nonglycated protein. The presence of glucose in the incubations promotes the nonenzymatic glycation of albumin, and the performance of paired incubations allows comparison of the amount of glycated albumin formed under control (0 glucose), stimulated (25-50 mM glucose), and inhibited (compound plus glucose) conditions.
T1 sequence (P02768 25-609): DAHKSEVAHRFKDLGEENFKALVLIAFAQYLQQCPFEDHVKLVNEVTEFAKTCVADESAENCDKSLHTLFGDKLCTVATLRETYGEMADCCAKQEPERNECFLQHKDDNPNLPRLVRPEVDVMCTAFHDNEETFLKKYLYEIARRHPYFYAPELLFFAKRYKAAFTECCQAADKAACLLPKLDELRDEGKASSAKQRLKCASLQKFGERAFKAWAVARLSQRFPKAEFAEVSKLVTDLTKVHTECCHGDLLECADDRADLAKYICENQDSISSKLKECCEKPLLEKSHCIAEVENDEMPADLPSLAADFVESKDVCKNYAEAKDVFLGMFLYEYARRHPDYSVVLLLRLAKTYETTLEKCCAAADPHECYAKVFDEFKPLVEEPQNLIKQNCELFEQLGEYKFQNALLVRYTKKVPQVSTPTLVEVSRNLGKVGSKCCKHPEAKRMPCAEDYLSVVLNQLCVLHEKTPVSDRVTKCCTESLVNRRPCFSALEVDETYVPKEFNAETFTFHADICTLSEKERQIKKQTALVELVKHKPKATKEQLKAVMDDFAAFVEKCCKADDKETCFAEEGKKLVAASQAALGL
Background: In an ELISA, binding on a coated surface is turned into a signal by an enzyme label.

In another series the target is T2, cyclo-oxygenase (Bos taurus, UniProt O62664).
T2 construct: from tissue; host or cells: bovine seminal vesicles (cellular homogenate)
T2 sequence (O62664 25-600): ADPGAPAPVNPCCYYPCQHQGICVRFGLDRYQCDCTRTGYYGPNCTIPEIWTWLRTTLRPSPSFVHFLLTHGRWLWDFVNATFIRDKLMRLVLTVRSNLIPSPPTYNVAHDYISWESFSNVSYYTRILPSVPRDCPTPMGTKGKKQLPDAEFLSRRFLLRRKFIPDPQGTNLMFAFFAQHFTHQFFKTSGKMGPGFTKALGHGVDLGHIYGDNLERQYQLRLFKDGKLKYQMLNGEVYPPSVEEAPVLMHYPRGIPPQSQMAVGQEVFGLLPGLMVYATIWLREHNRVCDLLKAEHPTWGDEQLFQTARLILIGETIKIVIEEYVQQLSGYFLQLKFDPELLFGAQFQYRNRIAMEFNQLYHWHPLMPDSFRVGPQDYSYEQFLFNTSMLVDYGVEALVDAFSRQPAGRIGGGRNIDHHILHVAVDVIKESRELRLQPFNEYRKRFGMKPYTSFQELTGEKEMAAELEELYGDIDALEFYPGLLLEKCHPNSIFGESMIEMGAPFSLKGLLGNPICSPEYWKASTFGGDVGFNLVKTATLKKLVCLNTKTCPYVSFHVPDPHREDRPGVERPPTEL
Nature of the series: Cyclo-oxygenase inhibition, conversion of arachidonic acid to prostaglandin E2 in bovine seminal vesicle homogenates. In kind it is biochemical. The conditions noted are these: arachidonic acid to prostaglandin E2, 1-30 minutes, read-out: COX Inhibition IC50. How it is done: Cellular homogenates of bovine seminal vesicles were incubated with arachidonic acid and the production of prostaglandins was monitored.

Another series deals with T3, glycated albumin (Mus musculus, UniProt P07724).
T3 construct: from tissue; host or cells: mouse plasma (in vivo dosing)
T3 sequence (P07724 25-608): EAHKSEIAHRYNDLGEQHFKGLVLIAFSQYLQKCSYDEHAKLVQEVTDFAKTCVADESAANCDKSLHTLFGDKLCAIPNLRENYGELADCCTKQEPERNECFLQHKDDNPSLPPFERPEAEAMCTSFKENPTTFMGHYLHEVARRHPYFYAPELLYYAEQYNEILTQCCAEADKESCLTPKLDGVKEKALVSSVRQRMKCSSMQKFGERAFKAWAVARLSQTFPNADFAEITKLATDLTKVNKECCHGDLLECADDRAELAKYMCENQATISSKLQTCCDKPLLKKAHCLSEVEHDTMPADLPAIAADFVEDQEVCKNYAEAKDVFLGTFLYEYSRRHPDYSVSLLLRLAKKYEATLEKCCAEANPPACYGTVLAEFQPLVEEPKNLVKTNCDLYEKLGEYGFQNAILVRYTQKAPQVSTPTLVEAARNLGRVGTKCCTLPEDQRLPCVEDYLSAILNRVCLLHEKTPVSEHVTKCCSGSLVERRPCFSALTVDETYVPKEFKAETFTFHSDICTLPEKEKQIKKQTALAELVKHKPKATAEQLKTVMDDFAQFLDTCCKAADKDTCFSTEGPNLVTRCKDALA
Nature of the series: Prevention of albumin glycation in vivo, plasma glycated albumin by ELISA. The conditions noted are these: mice; for Glycated Albumin, Percent change: post vs pre-treatment; for Glycated Albumin, Post-treatment: four hours after last dosing; for Glycated Albumin, Pre-treatment: before treatment. The source says: Blood was taken before the initiation of treatment and four hours after the last dosing at the conclusion of the treatment.

Series [2] has as its target T1, Human albumin. Nature of the series: Prevention of albumin glycation at physiologically significant sites (ELISA with anti-glycated albumin monoclonal antibody). To be noted: for pIC50: human albumin 10 mg/ml, 40 mM glucose, 4 days, compound 1-1000 μM. In kind it is biochemical. The protocol: The performance of paired incubations allowed comparison of the amount of glycated albumin formed under control (0 mM glucose), stimulated (40 mM glucose) and inhibited (test compound plus glucose) conditions.

A further series has as its system Mice. Nature of the series: Urine protein excretion after 8 weeks of treatment. In kind it is in vivo. The protocol:
Mice were treated for 8 weeks with 10 mg/kg/day of 2-(3-chlorophenylamino) phenylacetic acid in divided doses. Urine samples were obtained at the initiation and termination of treatment for examination of protein excretion, which measures vascular dysfunction that is associated with glycation-related pathology As shown below, the reduction in glycated albumin was associated with a reduction in urine protein excretion.

Setting [3] is: 5 mg/kg/day intraperitoneal for 5 days.
[4] abbreviates: 5 mg/kg/day intraperitoneal in divided doses for 5 days.
Setting [5] is: 10 mg/kg/day intraperitoneal for 5 days.
[6] abbreviates: 10 mg/kg/day intraperitoneal in divided doses for 5 days.

pIC50: −log10 of the molar value. Where a name gives a salt, the structure may show the parent alone.

As usually defined, the melting point is the temperature of the solid-liquid transition. The molecule `O=C(O)Cc1ccccc1Nc1cccc(Cl)c1` (as salt: salt) [Example 5, 2-[(3-chlorophenyl)amino]phenylacetic acid] showed a melting point of 102 to 103 °C.

By pIC50 is commonly meant the negative decadic logarithm of the IC50, by convention in mol/L. Regarding `O=C(O)Cc1ccccc1Nc1ccccc1` [Example 3, 2-[(phenyl)amino]phenylacetic acid], the pIC50 on Human albumin [1] is 3.81; at cyclo-oxygenase it was 3.54. The “Antiglycation IC50 versus COX Inhibition IC50 (ratio)” value on Human albumin [1] is given as 0.54.

`O=C(O)Cc1ccccc1Nc1ccccc1Cl` [Example 4, 2-[(2-chlorophenyl)amino]phenylacetic acid]: the figures for the pIC50 on Human albumin [1] and at cyclo-oxygenase were 5.00 and 4.38, respectively. Also, the “Antiglycation IC50 versus COX Inhibition IC50 (ratio)” value on Human albumin [1] came to 0.24. For the same molecule, the “Glycated Albumin, Percent change” value is −32.5% at glycated albumin (setting [3]) and −47.7% at glycated albumin (setting [5]). For the same molecule, the “Glycated Albumin, Post-treatment” value on glycated albumin (setting [4]) came out at 500 µg/mL; at glycated albumin (setting [6]) it was 426 µg/mL. For the same molecule, the “Glycated Albumin, Pre-treatment” value turned out to be 741 µg/mL on glycated albumin (5 mg/kg/day group) and 815 µg/mL on glycated albumin (10 mg/kg/day group).

Regarding `O=C(O)Cc1ccccc1Nc1cccc(Cl)c1` [Example 5, 2-[(3-chlorophenyl)amino]phenylacetic acid], the “ability to prevent glycation of the physiologically important sites” value on Human albumin [2] (comparison among the compounds of Table 1) was “greatest ability to prevent glycation”. Moreover, the pIC50 against Human albumin [2] is 4.82; on Human albumin [1], 4.30; at cyclo-oxygenase, 3.22. Besides, on Human albumin [1], the “Antiglycation IC50 versus COX Inhibition IC50 (ratio)” value turned out to be 0.08. The “Glycated Albumin, Percent change” value on glycated albumin (setting [3]) is −18.4%; on glycated albumin (setting [5]), −45.6%. The entries for the “Glycated Albumin, Post-treatment” value at glycated albumin (setting [4]) and at glycated albumin (setting [6]) were 697 µg/mL and 352 µg/mL, respectively. The “Glycated Albumin, Pre-treatment” value at glycated albumin (5 mg/kg/day group) was 854 µg/mL; at glycated albumin (10 mg/kg/day group), 647 µg/mL. For the same molecule, in the series with Mice (after 8 weeks of 10 mg/kg/day in divided doses), the “Urine protein, Termination” value is reported as 2.7 μg/24 hrs. Moreover, the “Urine protein, Initiation” value in the series with Mice (at initiation of treatment (baseline)) is given as 7.6 μg/24 hrs.

Take `O=C(O)Cc1ccccc1Nc1ccc(Cl)cc1` [Example 6, 2-[(4-chlorophenyl)amino]phenylacetic acid]: on Human albumin [1], the negative logarithm of the IC50 (pIC50) is 4.96 and the “Antiglycation IC50 versus COX Inhibition IC50 (ratio)” value was 0.11. The pIC50 on cyclo-oxygenase is 4.01.

Take `O=C(O)Cc1ccccc1Nc1ccc(Cl)cc1Cl` [Example 8, 2-[(2,4-dichlorophenyl)amino]phenylacetic acid]: at Human albumin [1], the negative logarithm of the IC50 (pIC50) was 4.20 and the “Antiglycation IC50 versus COX Inhibition IC50 (ratio)” value amounted to 0.90. The pIC50 on cyclo-oxygenase was 4.15.

As for `O=C(O)Cc1ccccc1Nc1ccc(Cl)c(Cl)c1` [Example 11, 2-[(3,4-dichlorophenyl)amino]phenylacetic acid], on Human albumin [1], the negative logarithm of the IC50 (pIC50) was 5.60 and the “Antiglycation IC50 versus COX Inhibition IC50 (ratio)” value was determined as 0.02. The pIC50 on cyclo-oxygenase is 3.85.

Consider `Cc1cccc(C)c1Nc1ccccc1CC(=O)O` [Example 13, 2-[(2,6-dimethylphenyl)amino]phenylacetic Acid], for which, at Human albumin [1], the negative-log IC50 (pIC50) was 3.95 and the “Antiglycation IC50 versus COX Inhibition IC50 (ratio)” value is given as 19.0. Further, the pIC50 on cyclo-oxygenase is 5.22.

Regarding `CC1=C(CC(=O)O)c2cc(F)ccc2/C1=C\c1ccc([S+](C)[O-])cc1` (stereo not drawn) [[Z]-5-fluoro-2-methyl-1 [p-(methylsulfinyl)phenyl] (methylene-1H-indene-3-acetic acid, reference compound], the pIC50 against Human albumin [2] was 1.66.

The record behind these values is patent US6552077B2, “Albumin-binding compounds that prevent nonenzymatic glycation and that may be used for treatment of glycation-related pathologies” (Exocell, Inc., priority 1996, dated 2003).
